Measurements from ChEMBL document CHEMBL3774323, “Stimulation of cortical bone formation with thienopyrimidine based inhibitors of Notum Pectinacetylesterase” (Bioorg Med Chem Lett, 2016).
pEC50, pIC50: −log10 of the molar value.

Experiments:
[1] = Inhibition of human/mouse notum pectinacetylesterase using OPTS as substrate by fluorimetric assay
[2] = biological target: T1, Palmitoleoyl-protein carboxylesterase NOTUM (Mus musculus, UniProt Q8R116); assay: Inhibition of mouse notum pectinacetylesterase expressed in 293F cells after 30 mins by TCF/LEF cell sensor assay; format: cell-based
T1 sequence (Q8R116 whole entry): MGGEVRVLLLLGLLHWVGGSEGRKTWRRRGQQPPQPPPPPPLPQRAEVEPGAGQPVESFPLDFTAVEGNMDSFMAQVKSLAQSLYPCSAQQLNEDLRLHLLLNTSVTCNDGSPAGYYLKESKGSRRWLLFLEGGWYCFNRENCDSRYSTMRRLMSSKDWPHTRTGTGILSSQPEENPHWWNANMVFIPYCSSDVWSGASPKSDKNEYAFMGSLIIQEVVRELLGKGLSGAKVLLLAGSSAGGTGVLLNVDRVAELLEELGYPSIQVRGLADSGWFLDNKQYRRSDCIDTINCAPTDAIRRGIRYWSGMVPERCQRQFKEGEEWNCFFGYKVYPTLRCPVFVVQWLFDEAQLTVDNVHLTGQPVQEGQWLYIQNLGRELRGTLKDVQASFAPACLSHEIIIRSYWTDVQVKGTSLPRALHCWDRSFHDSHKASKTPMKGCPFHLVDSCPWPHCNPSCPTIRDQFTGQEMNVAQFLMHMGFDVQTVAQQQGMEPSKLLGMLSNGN

[3] = biological target: T2, Palmitoleoyl-protein carboxylesterase NOTUM (Homo sapiens, UniProt Q6P988); assay: Inhibition of human notum pectinacetylesterase expressed in 293F cells after 30 mins by TCF/LEF cell sensor assay; format: cell-based
T2 sequence (Q6P988 whole entry): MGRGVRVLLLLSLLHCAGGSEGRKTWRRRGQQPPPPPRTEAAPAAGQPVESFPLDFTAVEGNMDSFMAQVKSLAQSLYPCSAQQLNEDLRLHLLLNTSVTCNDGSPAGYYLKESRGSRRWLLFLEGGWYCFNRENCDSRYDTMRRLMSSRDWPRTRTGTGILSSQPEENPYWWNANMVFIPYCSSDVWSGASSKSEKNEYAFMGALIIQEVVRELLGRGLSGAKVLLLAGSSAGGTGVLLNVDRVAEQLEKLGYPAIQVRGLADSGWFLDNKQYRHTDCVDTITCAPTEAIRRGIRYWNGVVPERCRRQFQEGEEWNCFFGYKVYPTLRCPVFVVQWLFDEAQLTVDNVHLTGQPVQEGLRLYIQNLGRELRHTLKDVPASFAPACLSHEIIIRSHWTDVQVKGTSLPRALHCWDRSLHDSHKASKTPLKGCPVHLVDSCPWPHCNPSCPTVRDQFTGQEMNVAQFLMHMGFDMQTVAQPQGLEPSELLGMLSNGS

[4] = Cmax in mouse at 10 mg/kg, po; format: ADME, organism-based; set-up: dose 10 mg/kg, route oral; details: in vivo
[5] = AUC in mouse at 10 mg/kg, po; format: ADME, organism-based; details: in vivo
[6] = Clearance in mouse at 10 mg/kg, po; format: ADME, organism-based; details: in vivo
[7] = system: Mus musculus; assay: Volume of distribution at steady state in mouse at 10 mg/kg, po; format: ADME, organism-based; details: in vivo
[8] = Oral bioavailability in mouse at 10 mg/kg; format: ADME, organism-based; details: in vivo

| Compound | pIC50 [1] | pEC50 [2] | pEC50 [3] | further results |
| --- | --- | --- | --- | --- |
| O=C(O)CSc1ncnc2sc3c(c12)CCCC3 | 6.21 |  |  |  |
| Cc1sc2ncnc(SCC(=O)O)c2c1C | 8.70 | 5.99 |  |  |
| Cc1cc2c(SCC(=O)O)ncnc2s1 | 6.82 |  |  |  |
| Cc1csc2ncnc(SCC(=O)O)c12 | 7.04 |  |  |  |
| Cc1sc2c(SCC(=O)O)ncnc2c1Cl |  | 5.26 | 5.71 |  |
| Cc1csc2c(SCC(=O)O)ncnc12 | 6.71 |  |  |  |
| O=C(O)CSc1ncnc2ccccc12 | 5.92 |  |  |  |
| Cc1sc2c(SCC(=O)O)ncnc2c1C |  | 5.35 | 6.06 |  |
| CCc1c(C)sc2ncnc(SCC(=O)O)c12 |  | 4.18 | 4.66 |  |
| O=C(O)CSc1ncnc2c(C3CC3)c(Cl)sc12 |  | 7.26 |  | Vdss [7]: 0.13 L/kg |
| Cc1c(Cl)sc2ncnc(SCC(=O)O)c12 |  | 5.59 | 6.05 |  |
| O=C(O)CSc1ncnc2[nH]ncc12 | 4.82 |  |  |  |
| Cc1sc2ncnc(SCC(=O)NS(C)(=O)=O)c2c1C | 7.96 |  | 5.84 |  |
| O=C(O)CSc1ncnc2[nH]ccc12 | 4.82 |  |  |  |
| O=C(O)CSc1ncnc2scnc12 | 4.82 |  |  |  |
| O=C(O)CSc1ncnc2sccc12 | 5.55 |  |  |  |

More lines, in order of rising pEC50 [3], values ahead:

| pIC50 [1] | pEC50 [2] | pEC50 [3] | Compound | further results |
| --- | --- | --- | --- | --- |
| 8.70 |  | 6.07 | Cc1sc2ncnc(SCC(N)=O)c2c1C |  |
|  | 5.58 | 6.08 | CCc1sc2ncnc(SCC(=O)O)c2c1C |  |
| 7.57 |  | 6.10 | CNC(=O)CSc1ncnc2sc(C)c(C)c12 |  |
| 8.70 |  | 6.25 | Cc1sc2ncnc(SCC(=O)NO)c2c1C |  |
|  | 6.08 | 6.32 | CC(C)c1sc2ncnc(SCC(=O)O)c2c1Cl |  |
| 8.70 |  | 6.35 | COC(=O)CSc1ncnc2sc(C)c(C)c12 |  |
|  | 5.84 | 6.36 | Cc1c(Cl)sc2c(SCC(=O)O)ncnc12 |  |
|  | 5.87 | 6.38 | Cc1c(Br)sc2c(SCC(=O)O)ncnc12 |  |
| 8.70 |  | 6.40 | Cc1sc2ncnc(SCC(=O)NC#N)c2c1C |  |
|  | 5.84 | 6.41 | CCc1sc2ncnc(SCC(=O)O)c2c1Cl |  |
| 8.00 |  | 6.55 | Cc1sc2ncnc(SCC(=O)c3c[nH]c(C(=O)N4CCCC4)c3)c2c1C |  |
|  | 6.00 | 6.60 | O=C(O)CSc1ncnc2sc(C3CC3)c(Cl)c12 |  |
| 8.30 |  | 6.60 | Cc1sc2ncnc(SCC(=O)c3ccc(CNC(=O)C4CC4)o3)c2c1C |  |
| 8.22 |  | 6.68 | Cc1sc2ncnc(SCC(=O)c3ccc(CNC(=O)C(C)C)o3)c2c1C |  |
|  | 6.43 | 6.68 | Cc1sc2ncnc(SCC(=O)O)c2c1Br |  |
| 8.70 |  | 6.77 | Cc1sc2ncnc(SCC(=O)c3c[nH]c(CNS(=O)(=O)C4CC4)c3)c2c1C |  |
|  | 6.31 | 6.84 | Cc1c(Br)sc2ncnc(SCC(=O)O)c12 |  |
|  | 6.39 | 6.94 | Cc1sc2c(SCC(=O)O)ncnc2c1C1CC1 |  |
|  | 6.39 | 6.97 | Cc1sc2ncnc(SCC(=O)O)c2c1Cl | Cmax [4]: 157 µM; AUC [5]: 515 µM·h; CL/F [6]: 1.22 mL/min/kg; Vdss [7]: 0.16 L/kg; bioavailability [8]: 95% |
|  | 6.47 | 7.06 | CCCc1sc2ncnc(SCC(=O)O)c2c1Cl |  |
|  | 7.37 | 7.92 | O=C(O)CSc1ncnc2c(C3CC3)c(C(F)(F)F)sc12 |  |
